Measurements as given in patent US20070197599A1, “HYDROXYLAMINES AND DERIVATIVES AS ANTI-ANGIOGENIC AGENTS” (priority 2006, published 2007).

Legend:
[1] = In vitro stability of Compound 1 in rat plasma; format: in vitro ADME; details: formed from OT-551 (Compound 1, 1000 ng/mL)
Experimental: (§1) The active metabolite of Compound 1 (Cyclopropanecarboxylic acid 1-hydroxy-2,2,6,6-tetramethyl-piperidin-4-yl ester) is TPH. The objective of this analysis was to determine the in vitro half-life of Compound 1 in rat, rabbit, dog, and human plasma under standardized incubation conditions.
(§2) Compound 1 was incubated with pooled rat, rabbit, dog, and human plasma for various times under standardized incubation conditions. Pre-labeled tubes containing pooled plasma from rats, rabbits, dogs, and humans were pre-incubated in a shaking 37° C. water bath. A Compound 1 solution was added to the tubes at a final concentration of 1000 ng/mL. Time zero samples (n=5) were immediately removed and transferred into tubes containing a stabilizer solution (DTPA, acetylcysteine and ascorbic acid), the LC/MS/MS assay internal standard and methanol. […] The tubes were vortexed, placed on ice, followed by centrifugation. One hundred-μL aliquots of the supernatant were transferred into HPLC sample vials. Additional tubes (n=5 at each time point) were incubated for 5, 10, 20, 30, 60, 120, and 240 minutes at 37° C. and thereafter processed. The amount of Compound 1 and TPH in each incubated sample was quantified using validated LC/MS/MS assays.

[2] = system: VEGF-induced angiogenesis in the CAM model; experiment: VEGF-induced angiogenesis in the CAM model (TPH); format: in vivo, chick
Experimental: (§3) Neovascularization was examined by previously described methods (see references at the end of Example 5). Ten-day-old fertilized chicken eggs were incubated at 37° C. with 55% relative humidity. In the dark with the help of candling lamp and using a hypodermic needle a small hole was punctured in the shell covering the air sac. A second hole was punctured on the wider side of the egg above an avascular area of the embryonic membrane. An artificial air sac was created below the second hole by applying gentle vacuum to the first hole using a small rubber squeeze bulb. The vacuum caused the separation of chorioallantoic membrane (CAM) from the shell. An approximately 1.0 cm^2 widow was cut in the shell over the dropped CAM with the use of a mini drill. The underlying CAM was accessed through this small window.
(§4) Filter disks were punched using a small puncher from filter paper #1 (Whatman International, United Kingdom). Filter disks were soaked in 3 mg/ml cortisone acetate solution (95% ethanol and water) and air-dried under sterile condition. For inducing angiogenesis, sterile filter disks were saturated with bFGF (1 μg/ml) or other pro-angiogenesis factors and control disks were saturated with PBS without Calcium and Magnesium.
(§5) Using sterile forceps one filter/CAM was placed from the window. The window was sealed with Highland brand transparent tape. After 24 hr, 10-25 µl of test agent (inhibitor) was injected intravenously or added topically into the CAM membrane of bFGF or other pro-angiogenesis factors stimulated CAMs. • Control filter disks received PBS without Calcium and Magnesium. • After 48 hr, CAM tissue directly beneath filter disk was harvested and placed in a 35-mm Petri dish. Eight-Ten eggs/treatment group was used.
(§6) A pro-angiogenic agent (see Examples, below) was added to induce new blood vessel branches on the CAM of 10-day old embryos. Sterile disks of #1 filter paper (Whatman International, United Kingdom) were pre-treated with 3 mg/ml cortisone acetate, and air dried under sterile conditions. The disks were then suspended in PBS (Phosphate Buffered Saline) and placed on growing CAMs. Filters treated with TPH (TEMPOL-H) or TEMPOL and/or H2O2 or TPH and/or bFGF or VEGF were placed on the first day of the 3-day incubation.
(§7) Digital Images and Microscopic analysis of CAM sections: CAM sections from Petri dish were examined using SV6 stereomicroscope (Karl Zeiss) at 50× magnification. Digital images were captured using a 3-CCD color video camera system (Toshiba America, New York, N.Y.). These images were analyzed using Image-Pro Plus software (Media Cybernetics). The number of branch points in blood vessels within the circular region superimposed to the area of a filter disk was counted for each section. After incubation at 37° C. with 55% relative humidity for 3 days, the CAM tissue directly beneath each filter disk was resected from control and treated CAM samples. Tissues were washed three times with PBS. Sections were placed in a 35-mm Petri dish (Nalge Nunc; Rochester, N.Y.) and were examined under a SV6 stereomicroscope (Karl Zeiss; Thornwood, N.Y.) at 50× magnification. Digital images of CAM sections adjacent to filters were collected using a 3-CCD color video camera system (Toshiba America; New York, N.Y.) and analyzed with the Image-Pro Plus software (Media Cybernetics; Silver Spring, Md.). The number of vessel branch points contained in a circular region equal to the area of a filter disk was counted for each section. Percent inhibition data are expressed as the quotient of the experimental value minus the negative control value divided by the difference between the positive control value and the negative control value. One image was counted in each CAM preparation, and findings from eight CAM preparations were analyzed for each treatment condition. In addition, each experiment was performed three times. […]

[3] = In vitro stability of Compound 1 in dog plasma; format: in vitro ADME; details: formed from OT-551 (Compound 1, 1000 ng/mL)
Experimental: as §1, §2

[4] = system: H2O2-induced angiogenesis in the CAM model; experiment: H2O2-induced angiogenesis in the chick chorioallantoic membrane (CAM) model; format: in vivo
Experimental: as §3, §4, §5, §6, §7

[5] = H2O2 (88 μM, 30 ng) + 100 μg test agent
[6] = H2O2 (88 μM, 30 ng) + 200 μg test agent
[7] = H2O2 (88 μM, 30 ng) + 400 μg test agent
[8] = H2O2 (88 μM, 30 ng) + 800 μg test agent

CC1(C)CC(O)CC(C)(C)N1O [TPH]
Concentration of TPH in plasma ([1]; incubation 0 min): 10.23 ± 1.59 ng/mL
Concentration of TPH in plasma ([1]; incubation 5 min): 30.47 ± 1.65 ng/mL
Concentration of TPH in plasma ([1]; incubation 10 min): 50.91 ± 2.11 ng/mL
Concentration of TPH in plasma ([1]; incubation 20 min): 86.30 ± 3.30 ng/mL
Concentration of TPH in plasma ([1]; incubation 30 min): 119.63 ± 7.08 ng/mL
Concentration of TPH in plasma ([1]; incubation 60 min): 201.94 ± 4.19 ng/mL
Concentration of TPH in plasma ([1]; incubation 120 min): 304.66 ± 7.27 ng/mL
Concentration of TPH in plasma ([1]; incubation 240 min): 362.66 ± 7.50 ng/mL
inhibition of VEGF-induced angiogenesis ([2]; 100-800 μg (Table 3)): dose-dependent inhibition
anti-angiogenesis efficacy against VEGF-induced angiogenesis as compared with bFGF ([2]; Tables 2 and 3): much greater
Mean % Inhibition ± SD ([2]; VEGF (2 μg/ml) + TPH 100 μg): 37.6 ± 6.9 %
Mean Branch points ± SD ([2]; VEGF (2 μg/ml) + TPH 100 μg): 154.8 ± 7.5
Mean % Inhibition ± SD ([2]; VEGF (2 μg/ml) + TPH 200 μg): 42 ± 3.5 %
Mean Branch points ± SD ([2]; VEGF (2 μg/ml) + TPH 200 μg): 150 ± 3.8
Mean % Inhibition ± SD ([2]; VEGF (2 μg/ml) + TPH 400 μg): 53.3 ± 3.3 %
Mean Branch points ± SD ([2]; VEGF (2 μg/ml) + TPH 400 μg): 137.8 ± 3.0
Mean % Inhibition ± SD ([2]; VEGF (2 μg/ml) + TPH 800 μg): 70.7 ± 9.1 %
Mean Branch points ± SD ([2]; VEGF (2 μg/ml) + TPH 800 μg): 118.8 ± 9.9
Concentration of TPH in plasma ([3]; incubation 0 min): 0.00 ± 0.00 ng/mL
Concentration of TPH in plasma ([3]; incubation 5 min): 5.85 ± 0.73 ng/mL
Concentration of TPH in plasma ([3]; incubation 10 min): 8.77 ± 0.65 ng/mL
Concentration of TPH in plasma ([3]; incubation 20 min): 12.79 ± 0.74 ng/mL
Concentration of TPH in plasma ([3]; incubation 30 min): 16.22 ± 0.67 ng/mL
Concentration of TPH in plasma ([3]; incubation 60 min): 25.68 ± 1.04 ng/mL
Concentration of TPH in plasma ([3]; incubation 120 min): 39.31 ± 1.09 ng/mL
Concentration of TPH in plasma ([3]; incubation 240 min): 53.92 ± 1.68 ng/mL
inhibition of angiogenesis induced by super-maximal concentrations of H2O2 ([4]; CAM model, Tables 1A and 1B): effectively inhibited
% Inhibition ± SD [4, 5]: 28.0 ± 13.6 %
Branch pts ± SEM [4, 5]: 155 ± 14.4
% Inhibition ± SD [4, 6]: 32.9 ± 8.4 %
Branch pts ± SEM [4, 6]: 151.3 ± 15.3
% Inhibition ± SD [4, 7]: 44.7 ± 6.6 %
Branch pts ± SEM [4, 7]: 137.2 ± 6.9
% Inhibition ± SD [4, 8]: 55.7 ± 7.2 %
Branch pts ± SEM [4, 8]: 127.3 ± 6.4
